Ten molecules from patent publication US7868013B2, “Cycloalkyl substituted pyrimidinediamine compounds and their uses” (Rigel Pharmaceuticals, Inc., priority 2004, dated 2011) can be followed below.

Read-outs that look alike come from different tables or passages of the source.

The subject of assay [1] is H1299 (non-small cell lung carcinoma). Briefly: In vitro antiproliferation assay, H1299 cells (TABLE 1 6 point assay; TABLE 2). In kind it is cell-based. The protocol:
(§1) Certain compounds were tested against other cell types for their ability to inhibit proliferation in standard antiproliferation assays.

A further assay concerns A549 (lung carcinoma). Briefly: In vitro antiproliferation assay, A549 cells (TABLE 1 6 point assay; TABLE 2). In kind it is cell-based. The protocol:
as §1

Setting [2] is: Homo sapiens, NCI-H1299, H1299 cells, 6 point assay, read-out: H1299, 6pt (IC50, inhibition of proliferation).
The mark [3] stands for this setting: Homo sapiens, A549, A549 cells, 6 point assay, read-out: A549, 6pt (IC50, inhibition of proliferation).
[4] abbreviates: Homo sapiens, NCI-H1299, 6 point assay, H1299 cells, read-out: IC50, H1299 cells.
The mark [5] stands for this setting: Homo sapiens, A549, 6 point assay, A549 cells, read-out: IC50, A549 cells.

With `CCS(=O)(=O)N1CCN(c2ccc(Nc3ncc(F)c(N[C@H]4[C@@H](C(N)=O)[C@@H]5C=C[C@H]4C5)n3)cc2C)CC1` [compound 269, (1R,2R,3S,4S)-N4-(3-Aminocarbonylbicyclo[2.2.1]hept-5-en-2-yl)-N2-[3-methyl-4-(4-ethylsulfonylpiperazin-1-yl)phenyl]-5-fluoro-2,4-pyrimidinediamine], the IC50 in assay [1] (6 point assay, H1299 cells, read-out: IC50, H1299 cells) is at most 0.1 µM; with A549 (lung carcinoma) (6 point assay, A549 cells, read-out: IC50, A549 cells) it was at most 0.1 µM.
For the molecule `Cc1cc(Nc2ncc(F)c(N[C@H]3CCC[C@H]3C(N)=O)n2)ccc1N1CCNCC1` (racemic) [compound 107, Racemic-cis-N4-(2-amino-carbonylcyclopent-1-yl)-5-fluoro-N2-[3-methyl-4-(piperazin-1-yl)phenyl]-2,4-pyrimidinediamine], the IC50 (in assay [1] (setting [2]); with A549 (lung carcinoma) (setting [3])) was 1 to 10 µM in each case.
In the case of `CCOC(=O)N1CCN(c2ccc(Nc3ncc(F)c(NC4CCCC4C(N)=O)n3)cc2)CC1` (centres unmarked) [compound 199, N4-(2-Carboxamidocyclopentyl)-N2-[4-(4-ethoxycarbonylpiperazino)phenyl]-5-fluoro-2,4-pyrimidinediamine], the IC50 (in assay [1] (setting [4]); in the assay on A549 (lung carcinoma) (setting [5])) was 0.1 to 1 µM each time.
For `NC(=O)[C@@H]1[C@H](Nc2nc(Nc3cccc(C4CCNCC4)c3)ncc2F)[C@H]2C=C[C@@H]1C2` [compound 274, (1R,2R,3S,4S)-N4-(3-Aminocarbonylbicyclo[2.2.1]hept-5-en-2-yl)-5-fluoro-N2-[3-(piperidin-4-yl)phenyl]-2,4-pyrimidinediamine], the IC50 (in assay [1] (setting [4]); in the assay with A549 (lung carcinoma) (setting [5])) was at most 0.1 µM each time.
Consider `CCCNC(=O)C1C2C=CC(C2)C1Nc1nc(Nc2ccc(N3CCN(C)CC3)c(C)c2)ncc1F` (racemic) [compound 168, Racemic-(2-exo,3-exo)-5-fluoro-N2-[4-(4-methylpiperazin-1-yl)-3-methylphenyl]-N4-[3-(N-n-propyl)aminocarbonylbicyclo[2.2.1]hept-5-en-2-yl]-2,4-pyrimidinediamine], for which the IC50 (in assay [1] (setting [2]); in the assay on A549 (lung carcinoma) (setting [3])) was at most 0.1 µM each time.
`Cc1cc(Nc2ncc(F)c(N[C@H]3[C@@H](C(N)=O)[C@@H]4C=C[C@H]3C4)n2)ccc1OC1CCN(C)CC1` [compound 150, (1R,2R,3S,4S)-N4-(3-Aminocarbonylbicyclo[2.2.1]hept-5-en-2-yl)-5-fluoro-N2-[3-methyl-4-(1-methylpiperidin-4-yloxy)phenyl]-2,4-pyrimidinediamine]: the IC50 (in assay [1] (setting [2]); in the assay with A549 (lung carcinoma) (setting [3])) was at most 0.1 µM throughout.
As for `Cc1cc(Nc2ncc(F)c(N[C@H]3CCC[C@@H]3C(=O)O)n2)ccc1N1CCN(C)CC1` [compound 209, (1S,2S)-5-fluoro-N4-(2-hydroxycarbonylcyclopent-1-yl)-N2-[3-methyl-4-(4-methylpiperazino)phenyl]-2,4-pyrimidinediamine], the IC50 (in assay [1] (setting [4]); in the assay on A549 (lung carcinoma) (setting [5])) was over 10 µM each time.
Take `CCOC(=O)[C@@H]1CCC[C@H]1Nc1nc(Nc2ccc(N3CCN(C)CC3)c(C)c2)ncc1F` [compound 210, (1R,2R)-N4-(2-Ethoxycarbonylcyclopent-1-yl)-5-fluoro-N2-{3-methyl-4-(4-methylpiperazino)phenyl]-2,4-pyrimidinediamine]: the IC50 (in assay [1] (setting [4]); in the assay with A549 (lung carcinoma) (setting [5])) was 1 to 10 µM each time.
For `Cc1cc(Nc2ncc(F)c(N[C@@H]3C=C[C@H](C(N)=O)C3)n2)ccc1N1CCN(C)CC1` [compound 225, (1S,4R)-cis-N4-(4-Aminocarbonylcyclopent-2-ene-1-yl)-5-fluoro-N2-[3-methyl-4-(4-methylpiperazin-1-yl)phenyl]-2,4-pyrimidinediamine], the IC50 (in assay [1] (setting [4]); in the assay on A549 (lung carcinoma) (setting [5])) was 0.1 to 1 µM throughout.
Turning to `CN(C)CCn1ccc2ccc(Nc3ncc(F)c(NC4C5C=CC(C5)C4C(N)=O)n3)cc21` (racemic) [compound 163, Racemic-(2-exo,3-exo)-N4-[3-aminocarbonylbicyclo[2.2.1]hept-5-en-2-yl)-N2-[1-(2-dimethylaminoethyl)indol-6-yl]-5-fluoro-2,4-pyrimidinediamine], the IC50 (in assay [1] (setting [2]); in the assay on A549 (lung carcinoma) (setting [3])) was 0.1 to 1 µM each time.
